Tests used:
Huh7 cells [1] = assay: CCK8 cell viability assay, Huh7; type: cell-based, human
Description: (§1) This study aimed to assess the anti-proliferative activity of dolutegravir-1,2,3-triazole derivatives on hepatocellular carcinoma cell lines, Huh7 and hepG2. A comprehensive CCK8 assay was employed to evaluate the impact of these compounds on cell viability, with cells treated at a concentration of 20 μM for 48 h. HRM cells, a normal cell line, were included as a control for comparative analysis.
(§2) Human hepatocellular carcinoma cell lines Huh7 and hepG2 were obtained from ATCC (Manassas, VA, USA). Cells were cultured in DMEM or RPMI 1640 medium containing 10% FBS and 1% penicillin/streptomycin at 37 °C with a 5% CO2-humidified atmosphere.
(§3) CCK8 assay was used to measure cell viability. Cells with a density of 1 × 10^4 cells/well were seeded on 96-well plates. After adhesion, cells were treated with different diluted compounds or vehicle control DMSO and continued to be cultured for 48 h or 72 h, respectively. Then, CCK8 reagent was added for one hour incubation at 37 °C with 5% CO2. Absorbance was measured using a Microplate spectrophotometer (Thermo, Waltham, MA, USA) at 450 nm. The ratio of cell viability of control was taken as 100%. […] Then, IC50 of compounds were investigated using the prism statistical software 7.0.

hepG2 cells = assay: CCK8 cell viability assay, hepG2; type: cell-based, human
Description: as §1, §2, §3

[2] = system: HRM cells (human renal mesangial cells); assay: in vitro; type: cell-based; conditions: 20 µM
Description: as §1, with “analysis. […]” for “analysis.”
as §3

Huh7 cells [3] = assay: LIVE/DEAD staining (live and dead cell measurement); type: cell-based, human; conditions: 5 μM or 10 μM, 24 h
Description: (§4) To further assess the anti-proliferative activity of dolutegravir derivatives, LIVE/DEAD staining was conducted. Huh7 cells were treated with 5 μM or 10 μM of 5e and 5p for 24 h, followed by live and dead cell imaging and quantification. […] This may be attributed to significant cell proliferation suppression at 10 μM concentration, leading to a limited number of viable cells. Furthermore, to validate the impact of dolutegravir derivatives on cell proliferation, a plate clone formation assay was performed. Cells were exposed to various concentrations (0, 2, 4, 8, 16, and 32 μM) of 5e or 5p.
Huh7 cells with a density of 5 × 10^3 cells/well were seeded on 96-well plates. Then, different concentrations (0, 5 μM, 10 μM) of 5e or 5p were treated for 24 h. Cells were then stained with the LIVE/DEAD Assay Kit, observed and photographed using the fluorescent microscope.

Huh7 cells [4] = assay: Plate clone formation assay; type: cell-based, human; conditions: 0, 2, 4, 8, 16, 32 μM, 48 h
Description: as §4
Huh7 cells were seeded into 6-well plates at a density of 100–500 cells/well. After 10 days culture, cells were added with 5e or 5p at different concentrations (0, 2 μM, 4 μM, 8 μM, 16 μM, 32 μM) for 48 h. Then, cells were fixed by 4% paraformaldehyde and stained by Giemsa dye. An optical microscope was used to photograph cells and the clone numbers were counted.

Huh7 cells [5] = assay: Apoptosis assay, Annexin V-FITC/PI flow cytometry; type: cell-based, human; conditions: 48 h
Description: Given the observed inhibitory effects of compounds 5e and 5p on cancer cell proliferation, we further investigated their impact on cell apoptosis. Apoptosis analysis was conducted on Huh7 cells treated with varying concentrations of 5e or 5p, utilizing Annexin V-FITC and PI staining, followed by flow cytometry to quantify apoptotic cells.
Huh7 cells were cultured in 6-well plates with a density of 3 × 10^5 cells/well. Different concentrations of 5e or 5p were added to cells for 48 h, respectively. The concentrations were 0, 2, 4, and 8 μM for Huh7 cells. After treatment, Annexin V-FITC Apoptosis Detection Kit (Elabscience, Wuhan, China) was used to determine the apoptotic ratio and FlowJo software v10 was used to analyze.

Huh7 cells [6] = assay: Cell cycle assay, PI staining flow cytometry; type: cell-based, human; conditions: 8 μM, 48 h
Description: To further investigate the effects of compounds 5e and 5p on regulation of the cell cycle, we treated cancer cells with different concentrations of 5e or 5p for 48 h and then analyzed cell cycle distribution using flow cytometry.
Huh7 cells were cultured in 6-well plates with a density of 3 × 10^5 cells/well. Cells were treated with different concentrations (0, 4, and 8 μM for Huh7) of 5e or 5p for 48 h respectively. Then the cell cycle was determined by PI staining using the flow cytometer(Thermo, Beijing, China).

Huh7 cells [7] = assay: Cellular ROS measurement (DCFH-DA); type: cell-based, human; conditions: 5, 10 and 20 μM, 24 h, Huh7, DCFH-DA staining
Description: Reactive oxygen species (ROS) play a crucial role in inducing cell death and inhibiting cell growth and proliferation. To investigate the impact of compounds 5e and 5p on ROS generation, various cancer cells were treated with 5e or 5p for 24 h. Subsequently, cells were stained with DCFDA [26], and ROS levels were visualized using a fluorescent microscope (Thermo, Beijing, China).
Huh7 cells were cultured in 96-well plates in a density of 5 × 10^3 cells/well. Different concentrations (0, 5, 10 and 20 μM) of 5e or 5p were added to cells, respectively, for 24 h. After treatment, cells were stimulated with 10 μM DCFH-DA for 30 min in 37 °C and then observed and photographed using the fluorescent microscope.

γ-H2AX = assay: Western blot, γ-H2AX; type: cell-based, human; conditions: 2, 4, 8 μM, 48 h, Huh7, western blot
Description: (§5) To elucidate the impact of compounds 5e and 5p on the regulation of cell proliferation, we examined the expression levels of key proteins involved in cell growth processes, encompassing autophagy, apoptosis, cell cycle, and DNA damage (Figure 7).
(§6) Protein expression levels were measured by western blot. Huh7 cells were cultured in 12-well plates and different concentrations (0, 2, 4, 8 μM) of 5e and 5p were added for 48 h. Proteins were extracted from whole cells using radio-immunoprecipitation assay (RIPA) buffer containing a protease/phosphatase inhibitor cocktail (CST). Then, 10–15% sodium dodecyl sulfate polyacrylamide gel electrophoresis and nitrocellulose membranes (Millipore) were employed to separate and collect proteins. Antibodies used include LC3 (3868s, CST), Caspase3 (9662, CST), cyclin D (2922s, CST), cyclin E (20808s, CST), γH2AX (9718s, CST), β-Catenin (9562s, CST), and β-actin (4967s, CST).

[8] = system: Cyclin D, Cyclin E, β-catenin; assay: Western blot, cell cycle-related proteins; type: cell-based, human; conditions: 2, 4, 8 μM, 48 h, Huh7, western blot
Description: as §5, §6

`COc1c2n(cc(C(=O)Nc3cccc(-c4cn(-c5cccc(C(F)(F)F)c5)nn4)c3)c1=O)CC1OCCC(C)N1C2=O` (stereo not drawn) [Compound 5p] was tested, and the “Cell Viability (100%), 20 μM, 48 h, Huh7” value (Huh7 cells [1]; 20 μM, Huh7, CCK8, control taken as 100%) was 5.93%, the IC50 (Huh7 cells [1]; 48 h, Huh7, CCK8, read-out: half maximal inhibitory concentration (IC50), Huh7) was 5.42 ± 0.43 µM and the “Cell Viability (100%), 20 μM, 48 h, hepG2” value (hepG2 cells; 20 μM, hepG2, CCK8, control taken as 100%) was 30.66%. The IC50 (hepG2 cells; 48 h, hepG2, CCK8, read-out: half maximal inhibitory concentration (IC50), hepG2) was 4.83 ± 1.17 µM, the “Cell Viability (100%), 20 μM, 48 h, HRM” value [2] was 16.33% and the “live Huh7 cells (LIVE/DEAD staining)” value (Huh7 cells [3]) was “decreased with increasing concentration”. For the same compound, the “ratio of dead to live cells” value (Huh7 cells [3]) was “increased compared to the untreated group”, the plate clone formation (Huh7 cells [4]) was “dose-dependent anti-proliferative activity” and the “apoptosis in Huh7 cells” value (Huh7 cells [5]; 2 μM) was “no significant impact”. The “apoptosis in Huh7 cells” value (Huh7 cells [5]; 4 μM) was “remarkable apoptosis”, the “apoptosis in Huh7 cells” value (Huh7 cells [5]; 8 μM) was “remarkable apoptosis” and the “effect on S phase of cell cycle” value (Huh7 cells [6]) was “clearly decreased phase of S”. The ROS generation (Huh7 cells [7]) was “significant increase in ROS generation”, the “γ-H2AX protein expression (DNA damage)” value (γ-H2AX) was “induction of γ-H2AX” and the “Cyclin D, Cyclin E or β-catenin expression” value [8] was “no significant differences”.

Reference: PMC11052077, “Discovery of Dolutegravir Derivative against Liver Cancer via Inducing Autophagy and DNA Damage” (Molecules, 2024)
